Test results taken from US20250282714A1, “COMPOSITIONS FOR AND METHODS OF MODULATING RNA STABILITY” (Duke University, priority 2022, published 2025).
Values joined by “and” are separate entries in the source; they are usually repeats but may differ in a detail not shown here. Identical values can stand only once. “Also recorded” adds a separate entry of the source.

Tests used:
MALAT1 triple helix [1] = assay: RNase A enzymatic degradation assay; format: biochemical, human; settings: 5-minute time point, relative to DMSO control
Procedure: The procedure was adapted from a published protocol for exonucleolytic enzymatic degradation assay. (Donlic A, et al. (2020) Nucleic Acids Res. 48(14):7653-7664). The MALAT1 destabilizing small molecules published by Le Grice (Abulwerdi F A, et al. (2019) ACS Chem Biol. 14(2):223-235) and co-workers SM5 and SM16 were purchased from ChemBridge. For a typical 70 μL reaction, […] of MALAT1 triple helix RNA was annealed in the same buffer used for IDA and DSF experiments (20 mM HEPES-KOH, 52 mM KCl, 0.1 mM MgCl2, pH=7.4) by heating at 95° C. for 3 minutes, snap-cooling on ice for 10 minutes, and leaving the solution at room temperature for 1 hr.
RNase A enzyme (ThermoFisher) was diluted to 1.46 nM and incubated with 1 M NaCl for 30-35 minutes to achieve ssRNA selectivity as reported. (Struhl K, et al. (1989) Current Protocols in Molecular Biology. 8(1):3.13.1-3.13.3). Next, the RNA was mixed with 0.2 μM of a GC-rich DNA duplex, […] of small molecule/DMSO and incubated at room temperature for 20 minutes. Following the incubation, […] of RNase A was added, and the reaction was incubated at 37° C. for 1 hour in a thermal cycler with a heated lid (Eppendorf). 4 μL timepoint aliquots were taken at 0, 5, 10, 30, and 60 minutes, 4 μL of 2×RNA loading dye was added to each aliquot (ThermoFischer Scientific), and samples were stored at −80° C. prior to gel analysis. Reactions were analyzed on pre-cast 15% PAGE-Urea gels (Invitrogen) in 1×TBE buffer. Aliquots were thawed from −80° C. storage and heated to 95° C. for 15 minutes prior to gel loading and […] were loaded in each well. Gels were run for 45 minutes at 180 V, stained with Diamond™ Nucleic Acid dye (Promega), and visualized on an iBright 500 (ThermoFisher). DMSO controls were ran with every set of 4 small molecules to ensure consistency of enzyme activity and RNA integrity. Gel band intensity of the MALAT1 triple helix and DNA loading control were quantified using ImageJ software. (Rueden C T, et al. (2017) BMC Bioinformatics. 18(1):529).
To quantify time-dependent endonucleolytic degradation for each sample, the intensity was normalized using Equation (3), and fold-difference was calculated as listed in Equation (4) as previously reported. (Donlic A, et al. (2020) Nucleic Acids Res. 48(14):7653-7664).
where y is normalized RNA area for a specific time point and the sample (tx), TH (triple helix). Area is the raw band intensity for the RNA in the lane corresponding to time point x for that sample, LC (loading control). Area (t0) is the raw band intensity for the DNA in the lane corresponding to the 0 minute time point for the sample, and LC Area (tx) is the raw band intensity for the DNA in the lane corresponding to time point x for that sample.
where y is fold-difference of the exonucleolytic degradation for the specific sample, with normalized areas for its specific time point x and time point 0 calculated as described in Equation (3). Percent RNA degraded was calculated for every time point using Equation (5).
% RNA degraded=(Normalized area (t0)−Normalized area (tx))*100 (Equation 5)
Experimental results shown in FIG. 6C are plotted as three independent replicates and standard deviation between replicates as error bars. Relative fold change between treated condition and DMSO was calculated from Equation (6).
The library was screened using a more biologically relevant in vitro enzymatic degradation assay. Previous work evaluated the effect on triplex degradation of various ionic buffer conditions (Ageeli A A, et al. (2018) Nucleic Acids Res. 47(3):1468-1481) and a sub-set of DPF small molecules (Donlic A, et al. (2020) Nucleic Acids Res. 48(14):7653-7664) using E. coli RNase R exonuclease as it degrades from 3′ to 5′, reporting on the availability of the poly(A) tail normally sequestered in the triplex construct. […]

MALAT1 triple helix [2] = assay: Differential scanning fluorimetry (DSF), thermal stability; format: binding, human; settings: DSF
Procedure: Differential scanning fluorimetry experiments were performed as previously reported. (Donlic A, et al. (2020) Nucleic Acids Res. 48(14):7653-7664). All experiments were performed in white 96 well plates in a LightCycler® 96 (Roche). In a typical experiment, 4 μM of RNA was annealed in the same buffer used for indicator displacement assays (20 mM HEPES-KOH, 52.6 mM KCl, 0.1 mM MgCl2, pH=7.4) by heating at 95° C. for 3 minutes, snap-cooling on ice for 10 minutes, and leaving the solution at room temperature for 1 hr. Then, 42 μL of this solution was aliquoted to wells and 5 μM of ligand was added (2.5 μL of water, 2.0 μL of DMSO, 0.5 μL of 500 μM small molecule stock). The mixture was left to incubate at room temperature for 5 minutes, after which 3 μL of a 20 μM Quant-iT™ RiboGreen™ (ThermoFisher Scientific) dye stock solution in appropriate buffer was added to each well. The 96 well plate was then sealed with an optically clear foil and centrifuged for 1 minute at 4000 rpm prior to being placed in the instrument. The light cycler program was created by selecting the melting curve method; fluorescence intensity was monitored using the SYBR Green I/HRM dye filter combination (465-510 nm) from 37-98° C. at a ramp rate of 0.01° C./second with 150 acquisitions per° C. Melting profiles were obtained by Tm analysis in the LightCycler® 96 software (SW 1.1).
The MALAT1 triple helix is known to confer stability to the full-length transcript and protect it from RNase-mediated degradation, ultimately resulting in transcript accumulation and aggregation in nuclear speckles. (Brown J A, (2020) WIREs RNA. 11(6):e1598; Wilusz J E, et al. (2012) Genes Dev. 26(21):2392-2407; Brown J A, et al. (2014) Nat Struct Mol Biol. 21(7):633-640; Tycowski K T, et al. (2016) Cell Rep. 15(6):1266-1276). To better understand how the diminazene focused library affects the MALAT1 triplex stability, the entire library was evaluated via differential scanning fluorimetry (DSF) (FIG. 5A). This method allows for rapid assessment of small molecule effects on nucleic acid thermal stability (Silvers R, et al. (2015) Chembiochem. 16(7):1109-1114) in a 96-well plate format, substantially reducing the time and cost associated with traditional UV-melting experiments.
The bi-phasic melting profile distinctive of triple helices is attributed to an initial melting of the Hoogsteen triple base pairs followed by dissociation of Watson-Crick-Franklin base pairs (FIG. 16A-FIG. 16E). (Pilch D S, et al. (1995) Biochemistry. 34(49):16107-16124). At an equimolar ratio of RNA:small molecule, a range of thermal stabilization of the first (Tm1) was observed, but not the second (Tm2) melting peak (FIG. 5A, FIG. 13A-FIG. 13Z). At increasing small molecule concentration, a dose-dependent increase in ΔTm1 but not in ΔTm2 was observed, indicating small molecule interactions in the triplex region and not in the upper stem region (FIG. 15).

## N=C(NCc1ccccc1)c1cccc(/N=N/Nc2cccc(C(=N)NCc3ccccc3)c2)c1 [DMZ-M4]
MALAT1 triple helix [1]
  increase of the amount of MALAT1 degraded at 5 minutes: 2 fold and > 2 fold
  stabilizer / destabilizer classification by RNase A degradation: destabilizers
MALAT1 triple helix [2]
  effect on MALAT1 triplex thermal stability (in words): increases in thermal stability; also recorded: mediocre
